Assay results from patent US20250034161A1, “SPIROCYCLIC COMPOUND AS KRAS-G12C INHIBITOR” (Shanghai Euregen Biopharma Co., Ltd., priority 2020, published 2025).

How the values were obtained:
A549(G12S) = experiment: Cell selectivity test, proliferation inhibition A549; type: cell-based; settings: Homo sapiens, 72 hours
From the text: (§1) • 1. Test purpose: to detect the proliferation inhibition of the test compounds on NCI-H23, NCI-H2122, HCC827, Mia paca2, A549 and SW837 cell lines. • 2. […] No. FND500); Penicillin-streptomycin was purchased from Gibco (Art. No. 15140-122); 0.25% trypsin-ethylenediaminetetraacetic acid digestive juice (Trypsin-EDTA) was purchased from Gibco (Art. No. 25200-072); dimethyl sulfoxide (DMSO) was purchased from Sigma (Art. No. D2650); 96-well cell plate was purchased from Corning (Art. No. 3610); incubator was purchased from NuAire (model number: NU-5700E); Biosafety cabinet was purchased from AuAire (model number: NU-543-600S); Inverted microscope was purchased from Nikon (Art. No. TS-100); Automated cell counter was purchased from Life technologies (model number: Countess II); Microplate reader was purchased from PerkinElmer (model number: Envision); the data processing software was GraphPad Prism 5.0. […]

SW837(G12C) = experiment: Cell selectivity test, proliferation inhibition SW837; type: cell-based; settings: Homo sapiens, 72 hours
From the text: as §1

NCI-H2122 (G12C) = experiment: Cell selectivity test, proliferation inhibition NCI-H2122; type: cell-based; settings: Homo sapiens, 72 hours
From the text: as §1

[1] = Pharmacokinetics study in mice (IV and PO); type: in vivo; settings: ICR male mice
Procedure: Preparation of 0.5% methyl cellulose: 5 g of methyl cellulose were weighed and dissolved in 1000 mL of purified water.
Preparation of oral formulation: a required amount of the test compound was weighed and dissolved in 0.5% methyl cellulose solution to obtain a suspension or solution of 0.5 mg/mL.
Preparation of intravenous injection formulation: a required amount of test compound was weighed, and dissolved in 0.5 mL of dimethyl sulfoxide to prepare a solution of 4 mg/mL. 0.06 mL of the above solution was taken, and 0.12 mL of polyethylene glycol 15 hydroxystearate (solutol) and 1.02 mL of normal saline were added thereto to obtain a solution of 0.2 mg/mL.
Feeding 4 hours after administration.
Sample Collection: blood was collected via the jugular vein or other suitable vein, and 0.03 mL blood was collected at each time point. Samples were placed into tubes containing ethylenediaminetetraacetic acid dipotassium salt and kept on ice before centrifugation. Within 1 hour after blood collection, the blood samples were centrifuged at 2-8° C. and 6800 g for 6 minutes and stored at −80° C. The time points for blood collection were 0.083, 0.25, 0.5, 1, 2, 4, 8 and 24 hours after intravenous and oral administration.

[2] = system: phosphorylation level of ERK in NCI-H358 cells; experiment: NCI-H358 pERK inhibitory activity (HTRF phospho-ERK); type: cell-based; settings: Homo sapiens, 1 hour incubation
Procedure: Test purpose: to detect the inhibitory effect of the test compound on the phosphorylation level of ERK in NCI-H358 cells. • 2. […] Test method:
NCI-H358 cells suspension was seeded at 80 μL per well in a clear 96-well cell culture plate, with 10000 cells each well. The cell culture plate was placed in an incubator and incubated overnight at 37° C. under 5% CO2. After incubation, the cell supernatant was discarded, 80 μL of PRMI1640 medium containing 0.02% serum was added to each well, and the cell culture plate was placed in an incubator and incubated overnight at 37° C., under 5% CO2. The test compound was diluted with 100% DMSO to 4 mmol/L as the first concentration, and then diluted 5-fold to the 8th concentration using a pipette. 2 μL of compound or DMSO (as negative control) was taken and added with 158 μL of cell culture medium. After mixing evenly, 20 μL of the compound solution was taken and added to corresponding cell plate well. […] After incubation, the signals at 615 nm and 665 nm were read using a multi-label analyzer. The percent inhibition was calculated according to the following formula: Ratio=(signal 665 nm/signal 615 nm)×10000; the percent inhibition=(ratio of test compound-ratio of negative control)/(ratio of blank-ratio of negative control)×100%.

NCI-H23 (G12C) = experiment: Cell selectivity test, proliferation inhibition NCI-H23; type: cell-based; settings: Homo sapiens, 72 hours
From the text: as §1

hERG potassium channel = hERG potassium channel (Homo sapiens, UniProt Q12809); experiment: hERG experiment, manual membrane clamp on HEK293 cells
From the text: hERG Experiment • 1. Test purpose: to test the inhibition of hERG current on HEK293 cells stably transfected with hERG potassium channel by manual membrane clamp; • 2. […] Manual membrane clamp system amplifier was purchased from Molecular Devices (Model No. MultiClamp700B); Manual membrane clamp system digital-to-analog converter was purchased from Molecular Devices (Model No. Axon Digidata1550B); Rapid perfusion system was purchased from ALA Scientific Ins. […] Experimental methods:
The cells were resuspended with culture medium and stored in a centrifuge tube, the supernatant was discarded after centrifugation, then the cells were resuspended with extracellular liquid for later use, and stored at 2-8° C.
The whole-cell membrane clamp technique was applied to record hERG currents. The cell suspension was added into small Petri dishes and placed on an inverted microscope stage. After cells were adhered, they were perfused with extracellular fluid at a recommended flow rate of 1-2 mL/min. The glass microelectrode was drawn in two steps by a micropipette puller, and its resistance value in water was 2-5 MΩ after filling with electrode internal fluid.
After the whole-cell recording mode was established, the clamp potential was maintained at −80 mV. […]
Stimulus release and signal acquisition were performed on PatchMaster software. […] Data was expressed as mean and standard deviation. […]

Mia paca2(G12C) = experiment: Cell selectivity test, proliferation inhibition Mia paca2; type: cell-based; settings: Homo sapiens, MIA PaCa-2, 72 hours
From the text: as §1

HCC827(wt) = experiment: Cell selectivity test, proliferation inhibition HCC827; type: cell-based; settings: Homo sapiens, 72 hours
From the text: as §1

[3] = Plasma protein binding assay (equilibrium dialysis), dog plasma; type: in vitro ADME; settings: pH 7.4, equilibrium dialysis 5 hours, read-out: Plasma protein binding rate (%) (converted)
Procedure: (§2) • 1. Test purpose: to evaluate the protein binding rate of the test compound in human, dog, monkey, rat and mouse plasma by equilibrium dialysis; • 2. […] Experimental methods: • 0.1 mol/L sodium phosphate and 0.15 mol/L sodium chloride buffer with pH 7.4±0.1 was preheated;
(§3) Preparation of plasma containing test substance: the test compound was dissolved in DMSO to prepare a 10 mmol/l stock solution. 5 μL of stock solution was taken and diluted with 95 μL of acetonitrile to obtain solution A (0.5 mmol/L). 8 μL of solution A was taken and diluted with 192 μL of 0.1 mol/L sodium phosphate buffer to obtain solution B (0.02 mmol/L). 570 μL of plasma was added into a 96-well plate followed by the addition of 30 μL of solution B. The final concentration was 1 μmol/L with 0.01% DMSO.
(§4) The plate was shook at 600 rpm for 10 minutes, covered and stored in a freezer (−20° C.).
(§5) T5 sample preparation (in triplicate): the dialysis device was added with 100 μL of buffer on its receiver side and 100 μL of plasma containing the test compound on its doner side. And the dialysis device was then shook at 37° C. and 120 rpm for 5 hours. At the end of culture, 25 μL of plasma containing the test substance was taken from the plasma side and then added to a 96-well plate, followed by the addition of 25 μL of buffer and 200 μL of acetonitrile solution containing internal standard. […]

[4] = Plasma protein binding assay (equilibrium dialysis), monkey plasma; type: in vitro ADME; settings: pH 7.4, equilibrium dialysis 5 hours, read-out: Plasma protein binding rate (%) (converted)
Procedure: as §2, §3, §4, §5

[5] = mouse, plasma, intravenous injection, 1 mg/kg
[6] = mouse, plasma, oral gavage, 5 mg/kg

Chain of hERG potassium channel (Q12809 whole entry): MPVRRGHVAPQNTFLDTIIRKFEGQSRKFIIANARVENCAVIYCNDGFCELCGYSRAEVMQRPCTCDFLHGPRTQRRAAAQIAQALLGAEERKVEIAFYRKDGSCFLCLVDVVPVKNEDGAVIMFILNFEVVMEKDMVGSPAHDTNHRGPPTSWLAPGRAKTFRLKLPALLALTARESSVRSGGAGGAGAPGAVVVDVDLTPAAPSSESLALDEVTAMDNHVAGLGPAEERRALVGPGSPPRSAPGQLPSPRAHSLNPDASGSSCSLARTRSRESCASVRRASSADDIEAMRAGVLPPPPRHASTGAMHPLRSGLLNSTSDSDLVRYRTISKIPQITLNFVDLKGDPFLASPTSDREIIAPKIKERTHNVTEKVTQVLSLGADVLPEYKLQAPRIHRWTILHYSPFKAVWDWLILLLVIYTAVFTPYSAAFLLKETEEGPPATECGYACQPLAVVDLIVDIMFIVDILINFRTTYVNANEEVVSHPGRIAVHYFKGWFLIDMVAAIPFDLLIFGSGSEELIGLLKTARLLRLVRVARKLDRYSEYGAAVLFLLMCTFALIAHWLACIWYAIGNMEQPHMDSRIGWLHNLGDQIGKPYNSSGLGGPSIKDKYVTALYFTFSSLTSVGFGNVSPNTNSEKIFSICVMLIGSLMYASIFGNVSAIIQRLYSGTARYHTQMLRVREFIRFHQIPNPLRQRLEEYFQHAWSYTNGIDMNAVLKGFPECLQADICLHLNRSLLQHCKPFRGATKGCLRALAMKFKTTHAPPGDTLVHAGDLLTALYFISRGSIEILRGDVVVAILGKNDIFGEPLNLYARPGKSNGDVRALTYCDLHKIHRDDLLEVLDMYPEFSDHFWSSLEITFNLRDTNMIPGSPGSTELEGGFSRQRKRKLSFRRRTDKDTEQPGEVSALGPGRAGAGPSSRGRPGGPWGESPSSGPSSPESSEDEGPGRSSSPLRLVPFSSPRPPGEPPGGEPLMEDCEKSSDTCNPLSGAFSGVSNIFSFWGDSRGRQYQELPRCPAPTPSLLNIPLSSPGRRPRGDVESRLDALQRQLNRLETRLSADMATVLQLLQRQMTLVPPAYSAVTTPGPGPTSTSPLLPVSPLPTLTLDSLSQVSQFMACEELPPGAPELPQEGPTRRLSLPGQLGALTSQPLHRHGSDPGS

Work on `C=CC(=O)N1CCN(c2nc(=O)n(-c3c(C)ccnc3C(C)C)c3nc(-c4c(O)cccc4F)c(F)cc23)[C@@H](C)C1` [AMG510] yielded an IC50 (A549(G12S)) of over 10000 nM, an IC50 (SW837(G12C)) of 285 nM and an IC50 (NCI-H2122 (G12C)) of 27 nM. It also gave an F ([1]; oral gavage, 5 mg/kg) of 0.33%, an AUC(0-inf) [1, 5] of 227 ng·h/mL and a Cmax [1, 5] of 623 ng/mL. The clearance [1, 5] was 74.7 mL/min/kg, the half-life [1, 5] was 13.2 min and the Vd ([1]; mouse, plasma, intravenous injection, 1 mg/kg, read-out: Vz) was 1.42 L/kg. For the same molecule, the AUC(0-inf) [1, 6] was 6.12 ng·h/mL, the Cmax [1, 6] was 7.25 ng/mL and the half-life [1, 6] was 21.6 min. It also gave an IC50 [2] of 88.3 nM, an IC50 (NCI-H23 (G12C)) of 7.55 nM and an IC50 (hERG potassium channel) of over 30000 nM. For the same molecule, the IC50 (Mia paca2(G12C)) was 15.7 nM, the IC50 (HCC827(wt)) was over 10000 nM and the fraction unbound at 5 h, 1 μmol/L [3] was 0.079. For the same molecule, the fraction unbound at 5 h, 1 μmol/L [4] was 0.017.
Molecule `C=C(F)C(=O)N1CCN(c2nc(OC[C@@H]3CCCN3C)nc3c2CCN(c2cccc4cccc(Cl)c24)C3)C[C@@H]1CC#N` [MRTX849] has an IC50 (hERG potassium channel) of 990 nM, a fraction unbound at 5 h, 1 μmol/L [3] of 0.012 and a fraction unbound at 5 h, 1 μmol/L [4] of 0.013.
